Tests used:
subject samples = assay: Reference Lab NOXA priming assay on subject samples; format: cell-based, human
MOLM-13 [1] = settings: published NOXA test results; cited from earlier work
OCI-AML3 [2] = settings: published NOXA test results; cited from earlier work
THP-1 [3] = settings: published NOXA test results; cited from earlier work
HL-60 [4] = settings: published NOXA test results; cited from earlier work
U-937 [5] = settings: published NOXA test results; cited from earlier work
KG-1 [6] = settings: published NOXA test results; cited from earlier work
MV4-11 [7] = settings: published NOXA test results; cited from earlier work
[8] = test system: MOLM-13 and OCI-AML3 cells; assay: Whole cell assay, JC-1 mitochondrial potential, permeabilized and non-permeabilized cells; format: cell-based; settings: 100 μM, normalized mitochondrial potential
Procedure: (§1) Briefly, frozen MOLM-13 and OCI-AML3 cell stocks were rapidly thawed, and cell viability was determined by Trypan Blue exclusion. Cells were washed in PBS and resuspended in DTEB (or MEB) buffer (135 mM Trehalose [or 150 mM Mannitol], 10 mM HEPES, 50 mM KCl, 20 μMI EGTA, 20 μM EDTA, 0.1% BSA, and 5 mM succinate). The profiling peptides and NOXA ([…]; SEQ ID NO:16) were reconstituted in water to make working solutions allowing for final concentrations of: SEQ ID NO:1 (100 μM), SEQ ID NO:14 (100 μM), SEQ ID NO:15 (100 μM), and NOXA (100 μM). […] Profiling peptides, controls, or NOXA (for comparison purposes) were first added to a microplate. Cells (4×10^5) resuspended in DTEB or MEB buffers were then added to a staining solution ([…], 40 μM JC-1, 1 M 2-mercaptoethanol, DTEB or MEB buffer), before being added to the wells of the microplate in the above (for non-digitonin-treated samples, digitonin was not added to the staining solution above). The mixture was then incubated for up to 2 hours at 30° C., in order for cell permeabilization (if needed), delivery of peptides or compounds, and mitochondrial depolarization to occur. Fluorescence signal of each well was assessed using an Envision multilabel plate reader at Ex475/Em530 and Ex530/Em595. […]

MOLM-13 cells = assay: Whole cell assay, JC-1 mitochondrial potential, cells lacking digitonin (FIG. 1B); format: cell-based; settings: 100 μM peptide, no digitonin
Procedure: as §1

MOLM-13 [9] = assay: SEQ ID NO: 14 assay (Example 5, DiOC6 flow cytometry); format: cell-based; settings: non-permeabilized, DiOC6 MFI vs CCCP and water
OCI-AML3 [10] = assay: as above; format: cell-based; settings: non-permeabilized, DiOC6 MFI vs CCCP and water
THP-1 [11] = assay: as above; format: cell-based; settings: non-permeabilized, DiOC6 MFI vs CCCP and water
HL-60 [12] = assay: as above; format: cell-based; settings: non-permeabilized, DiOC6 MFI vs CCCP and water
U-937 [13] = assay: as above; format: cell-based; settings: non-permeabilized, DiOC6 MFI vs CCCP and water
KG-1 [14] = assay: as above; format: cell-based; settings: non-permeabilized, DiOC6 MFI vs CCCP and water
MV4-11 [15] = assay: as above; format: cell-based; settings: non-permeabilized, DiOC6 MFI vs CCCP and water
Procedure: (§2) Leukocytes are isolated from primary bone marrow aspirates using ficoll preparation. Leukocytes may be fresh or frozen. If frozen, the sample is thawed prior to testing. Incubate the sample in RPMI with DNase 1 in 37° C. incubator for 60 minutes. Cells are then pelleted, blocked in PBS with 1% BSA for 15 minutes on ice, followed by staining for 30 minutes on ice in the dark. After staining, cells are pelleted and resuspended in DTEB with Ryanodine (30 nM) and Oligomycin. After incubating in a 37° C. incubator for 30 minutes, the sample is separated into fluorescent-activated cell sorting (FACS) tubes and treated with either water (negative control), CCCP (positive control) or SEQ ID NO:14 (subject dependency) and incubated in a 37° incubator for 60 minutes. DiOC6, a cationic mitochondrial dye is then added and incubated for 60 minutes in a 37° C. incubator. The cells are then analyzed via flow cytometry. Blast cells are isolated by gating on the CD45 dim, CD13, CD33 and CD34 high population of each sample. (See FIG. 3). Where indicated, cells may be further gated using CD3 and CD20. Dependency values are calculated using the median fluorescent intensity (MFI) of DiOC6 in each sample according to the following equation: […]
NOXA assay results were compared to the results of the assay described in Example 5.

[16] = test system: subject samples (AML blast cells); assay: SEQ ID NO: 14 assay (Example 5) on subject samples; format: cell-based, human
Procedure: as §2

[17] = Sample # 17, subject treated with FLAM, complete response
[18] = Sample # 18, subject treated with FLAM, complete response
[19] = Sample # 19, subject treated with FLAM, complete response

## AELPPEFAAQLRKIGDKVYC (NOXA sequence) [standard NOXA BH3 peptide, used for comparison]
Subject samples; Sample # 1
  Reference Lab NOXA Priming %: 14.0%
  Reference Lab NOXA Result (Pos/Neg): Neg (Concordance based on cutoff of ≥40% MCL-1 Dependency for both methods.)
Subject samples; Sample # 2
  Reference Lab NOXA Priming %: 60.0%
  Reference Lab NOXA Result (Pos/Neg): Pos (Concordance based on cutoff of ≥40% MCL-1 Dependency for both methods.)
Subject samples; Sample # 3
  Reference Lab NOXA Priming %: 16.0%
  Reference Lab NOXA Result (Pos/Neg): Neg (Concordance based on cutoff of ≥40% MCL-1 Dependency for both methods.)
Subject samples; Sample # 4
  Reference Lab NOXA Priming %: 0.0%
  Reference Lab NOXA Result (Pos/Neg): Neg (Concordance based on cutoff of ≥40% MCL-1 Dependency for both methods.)
Subject samples; Sample # 5
  Reference Lab NOXA Priming %: 94.4%
  Reference Lab NOXA Result (Pos/Neg): Pos (Concordance based on cutoff of ≥40% MCL-1 Dependency for both methods.)
Subject samples; Sample # 6
  Reference Lab NOXA Priming %: 48.6%
  Reference Lab NOXA Result (Pos/Neg): Pos (Concordance based on cutoff of ≥40% MCL-1 Dependency for both methods.)
Subject samples; Sample # 7
  Reference Lab NOXA Priming %: 0.0%
  Reference Lab NOXA Result (Pos/Neg): Neg (Concordance based on cutoff of ≥40% MCL-1 Dependency for both methods.)
Subject samples; Sample # 8
  Reference Lab NOXA Priming %: 23.5%
  Reference Lab NOXA Result (Pos/Neg): Neg (Concordance based on cutoff of ≥40% MCL-1 Dependency for both methods.)
Subject samples; Sample # 9
  Reference Lab NOXA Priming %: 79.1%
  Reference Lab NOXA Result (Pos/Neg): Pos (Concordance based on cutoff of ≥40% MCL-1 Dependency for both methods.)
Subject samples; Sample # 10
  Reference Lab NOXA Priming %: 38.0%
  Reference Lab NOXA Result (Pos/Neg): Neg (Concordance based on cutoff of ≥40% MCL-1 Dependency for both methods.)
Subject samples; Sample # 11
  Reference Lab NOXA Priming %: 43.3%
  Reference Lab NOXA Result (Pos/Neg): Pos (Concordance based on cutoff of ≥40% MCL-1 Dependency for both methods.)
Subject samples; Sample # 12
  Reference Lab NOXA Priming %: 0.0%
  Reference Lab NOXA Result (Pos/Neg): Neg (Concordance based on cutoff of ≥40% MCL-1 Dependency for both methods.)
Subject samples; Sample # 13
  Reference Lab NOXA Priming %: 0.0%
  Reference Lab NOXA Result (Pos/Neg): Neg (Concordance based on cutoff of ≥40% MCL-1 Dependency for both methods.)
Subject samples; Sample # 14
  Reference Lab NOXA Priming %: 0.0%
  Reference Lab NOXA Result (Pos/Neg): Neg (Concordance based on cutoff of ≥40% MCL-1 Dependency for both methods.)
Subject samples; Sample # 15
  Reference Lab NOXA Priming %: 7.0%
  Reference Lab NOXA Result (Pos/Neg): Neg (Concordance based on cutoff of ≥40% MCL-1 Dependency for both methods.)
Subject samples; Sample # 16
  Reference Lab NOXA Priming %: 7.0%
  Reference Lab NOXA Result (Pos/Neg): Neg (Concordance based on cutoff of ≥40% MCL-1 Dependency for both methods.)
Subject samples; [17]
  Reference Lab NOXA Priming %: 10.89%
  Reference Lab NOXA Result (Pos/Neg): Neg (Concordance based on cutoff of ≥40% MCL-1 Dependency for both methods.)
Subject samples; [18]
  Reference Lab NOXA Priming %: 14.43%
  Reference Lab NOXA Result (Pos/Neg): Neg (Concordance based on cutoff of ≥40% MCL-1 Dependency for both methods.)
Subject samples; [19]
  Reference Lab NOXA Priming %: 0.0%
  Reference Lab NOXA Result (Pos/Neg): Neg (Concordance based on cutoff of ≥40% MCL-1 Dependency for both methods.)
MOLM-13 [1]
  NOXA Priming %: 19.24%
OCI-AML3 [2]
  NOXA Priming %: 21.96%
THP-1 [3]
  NOXA Priming %: 11.28%
HL-60 [4]
  NOXA Priming %: 7.60%
U-937 [5]
  NOXA Priming %: 24.35%
KG-1 [6]
  NOXA Priming %: 12.39%
MV4-11 [7]
  NOXA Priming %: 12.84%

## YGRKKRRQRRRGGGRPEIWMTQGLRRLGDEINAYYAR (profiling peptide sequence) [SEQ ID NO:14]
[8]
  activity in the absence of digitonin compared to Mcl-1 binding domain alone or SEQ ID NO:15: superior activity
MOLM-13 cells
  activity compared to the positive control (FCCP): exceeded the activity of the positive control
MOLM-13 [9]
  SEQ ID NO: 14 Dependency %: 20.78%
OCI-AML3 [10]
  SEQ ID NO: 14 Dependency %: 19.40%
THP-1 [11]
  SEQ ID NO: 14 Dependency %: 11.70%
HL-60 [12]
  SEQ ID NO: 14 Dependency %: 24.5%
U-937 [13]
  SEQ ID NO: 14 Dependency %: 10.1%
KG-1 [14]
  SEQ ID NO: 14 Dependency %: 0.0%
MV4-11 [15]
  SEQ ID NO: 14 Dependency %: 5.0%
[16]; Sample # 1
  SEQ ID NO: 14 Dependency %: 18.0%
  SEQ ID NO: 14 Result (Pos/Neg): Neg (Concordance based on cutoff of ≥40% MCL-1 Dependency for both methods.)
[16]; Sample # 2
  SEQ ID NO: 14 Dependency %: 44.9%
  SEQ ID NO: 14 Result (Pos/Neg): Pos (Concordance based on cutoff of ≥40% MCL-1 Dependency for both methods.)
[16]; Sample # 3
  SEQ ID NO: 14 Dependency %: 53.8%
  SEQ ID NO: 14 Result (Pos/Neg): Pos (Concordance based on cutoff of ≥40% MCL-1 Dependency for both methods.)
[16]; Sample # 4
  SEQ ID NO: 14 Dependency %: 26.7%
  SEQ ID NO: 14 Result (Pos/Neg): Neg (Concordance based on cutoff of ≥40% MCL-1 Dependency for both methods.)
[16]; Sample # 5
  SEQ ID NO: 14 Dependency %: 70.8%
  SEQ ID NO: 14 Result (Pos/Neg): Pos (Concordance based on cutoff of ≥40% MCL-1 Dependency for both methods.)
[16]; Sample # 6
  SEQ ID NO: 14 Dependency %: 44.3%
  SEQ ID NO: 14 Result (Pos/Neg): Pos (Concordance based on cutoff of ≥40% MCL-1 Dependency for both methods.)
[16]; Sample # 7
  SEQ ID NO: 14 Dependency %: 48.1%
  SEQ ID NO: 14 Result (Pos/Neg): Pos (Concordance based on cutoff of ≥40% MCL-1 Dependency for both methods.)
[16]; Sample # 8
  SEQ ID NO: 14 Dependency %: 17.0%
  SEQ ID NO: 14 Result (Pos/Neg): Neg (Concordance based on cutoff of ≥40% MCL-1 Dependency for both methods.)
[16]; Sample # 9
  SEQ ID NO: 14 Dependency %: 71.8%
  SEQ ID NO: 14 Result (Pos/Neg): Pos (Concordance based on cutoff of ≥40% MCL-1 Dependency for both methods.)
[16]; Sample # 10
  SEQ ID NO: 14 Dependency %: 0.0%
  SEQ ID NO: 14 Result (Pos/Neg): Neg (Concordance based on cutoff of ≥40% MCL-1 Dependency for both methods.)
[16]; Sample # 11
  SEQ ID NO: 14 Dependency %: 40.6%
  SEQ ID NO: 14 Result (Pos/Neg): Pos (Concordance based on cutoff of ≥40% MCL-1 Dependency for both methods.)
[16]; Sample # 12
  SEQ ID NO: 14 Dependency %: 38.3%
  SEQ ID NO: 14 Result (Pos/Neg): Neg (Concordance based on cutoff of ≥40% MCL-1 Dependency for both methods.)
[16]; Sample # 13
  SEQ ID NO: 14 Dependency %: 35.2%
  SEQ ID NO: 14 Result (Pos/Neg): Neg (Concordance based on cutoff of ≥40% MCL-1 Dependency for both methods.)
[16]; Sample # 14
  SEQ ID NO: 14 Dependency %: 2.6%
  SEQ ID NO: 14 Result (Pos/Neg): Neg (Concordance based on cutoff of ≥40% MCL-1 Dependency for both methods.)
[16]; Sample # 15
  SEQ ID NO: 14 Dependency %: 0.0%
  SEQ ID NO: 14 Result (Pos/Neg): Neg (Concordance based on cutoff of ≥40% MCL-1 Dependency for both methods.)
[16]; Sample # 16
  SEQ ID NO: 14 Dependency %: 0.1%
  SEQ ID NO: 14 Result (Pos/Neg): Neg (Concordance based on cutoff of ≥40% MCL-1 Dependency for both methods.)
[16]; [17]
  SEQ ID NO: 14 Dependency %: 62.4%
  SEQ ID NO: 14 Result (Pos/Neg): Pos (Concordance based on cutoff of ≥40% MCL-1 Dependency for both methods.)
[16]; [18]
  SEQ ID NO: 14 Dependency %: 55.0%
  SEQ ID NO: 14 Result (Pos/Neg): Pos (Concordance based on cutoff of ≥40% MCL-1 Dependency for both methods.)
[16]; [19]
  SEQ ID NO: 14 Dependency %: 27.8%
  SEQ ID NO: 14 Result (Pos/Neg): Neg (Concordance based on cutoff of ≥40% MCL-1 Dependency for both methods.)

— patent US10422788B2, “Profiling peptides and methods for sensitivity profiling” (Tolero Pharmaceuticals, Inc., priority 2016, dated 2019)
